Data: patent publication US9623084B2, “Methods for treating multiple sclerosis” (UNIVERSITY OF SOUTHERN CALIFORNIA, priority 2013, dated 2017)

Experiments:
[1] = test system: PLP-EAE in SJL/J mice (relapsing-remitting model of MS); test: A(1-7) treatment in the relapsing-remitting PLP-EAE model of MS; type: in vivo; details: FIG. 1C
Text: Multiple Sclerosis (MS) is a chronic autoimmune and neurodegenerative disease of the central nervous system (CNS) that is characterized by focal infiltration of leukocytes, including myelin-specific T cells, into the CNS, resulting destruction of myelin, demyelination, oxidative stress, axonal loss and ultimately, clinical symptoms and neurological disability. Experimental autoimmune encephalomyelitis (EAE) is a well-established animal model of MS that mimics many of the features of MS. We evaluated the ability of angiotensin peptide A(1-7) to modulate EAE disease course. For this study we used two common EAE models to study the efficacy of A(1-7), one that replicates the chronic progressive form of MS and the other that follows a relapsing-remitting course of the disease. Mice were immunized with peptides corresponding to major immunodominant regions of two myelin proteins: myelin oligodendrocyte protein 35-55 (MOG-EAE) immunization in C57BL6 mice to induce a chronic progressive disease, or proteolipid protein 139-151 (PLP-EAE) immunization in SJL/J mice induced a relapsing-remitting disease.
Female SJL/J mice, 10-weeks-old, were immunized subcutaneously in 4 sites on their flank (approximately 50 μl each) with 120 μg PLP-139-151 peptide emulsified in 200 μl CFA at baseline. Mice were anesthetized (as described for MOG-EAE) for the immunizations. SJL/J mice are highly susceptible to EAE induction by this method and require only one immunization to achieve disease in 90-100% of mice.
PLP-EAE is a relapsing form of disease in which the first acute attack of neurological symptoms occurs at approximately 10-13 days after immunization, peaks between day 15 and 18, is followed by a period of recovery, or remission for about 10 days. 25-40 days after immunization ˜75% of mice develop a second wave of paralysis (relapse). Relapses are often less severe and of shorter duration than the first attack. PLP-EAE mimics the relapsing-remitting form of MS. […]

[2] = test system: MOG-EAE in C57BL/6 mice (chronic progressive model of MS); test: A(1-7) treatment in the chronic progressive MOG-EAE model of MS; type: in vivo; details: for disease course (clinical scores): vs control non-treated immunized mice, up to 50 days post immunization
[3] = test system: Normal human progenitor cells (neurosphere cultures); test: A(1-7) treatment in in vitro neurosphere cultures; type: cell-based
Procedure: Normal human progenitor cells were purchased from Clonetics (San Diego, Calif.) and cultured in Neural Progenitor Cell Maintenance Medium (NPMM) [Neural Progenitor Basal Medium containing human recombinant fibroblast growth factor-beta, human recombinant epidermal growth factor, neural survival factors, gentamycin and amphotericin B)]. The cells were thawed, diluted into NPMM and cultured for 24 hours in a 75 cm^2 flask. Until studies to assess differentiation, the cells were cultured in dedifferentiated spheroids.
In order to assess the differentiation of neuronal cells, the cells were seeded upon wells coated with 0.05% polyethyleneimine (PEI) substrate in borate buffer solution. The wells of a 96 well plate were coated with 0.05 ml of this solution overnight at room temperature. After the incubation, the substrate was removed by aspiration, rinsed with sterile water and allowed to dry before seeding of cells. Four days after plating, the number of cells undergoing differentiation, as assessed by neurite outgrowth) was counted

[4] = treatment started 10 days after immunization, vs control non-treated immunized mice

For “Asp-Arg-Val-Tyr-Ile-His-Pro (DRVYIHP) [A(1-7), angiotensin peptide A(1-7)]”, the “disease course (disability) with duration of treatment” value ([1]; PLP-EAE SJL mice, increasing duration of treatment) was “improves disease course (less disability) with increasing duration of treatment”, the disease severity [1, 4] was “the disease was less severe” and the onset of disease [1, 4] was “delayed onset of disease”. For the same substance, the “disease progression and severity” value ([2]; 1 mg/kg/day continuous delivery (Alzet pump) vs control, started day 11, FIG. 3) was “highly effective at inhibiting disease progression and maintaining reduced severity of the disease”, the restoration from disability ([2]; 2 mg/kg/day continuous delivery vs control saline treated mice, FIG. 3 and FIG. 4A) was “promotes restoration from disability” and the clinical disease score ([2]; all doses, twice daily injection, vs control saline treated mice, started day 11, FIG. 2) was “improved clinical disease score”. The “disease course (clinical scores)” value ([2]; once daily sc 0.5 mg/kg A(1-7) from day 10, FIG. 1A) was “less severe disease course”, the “clinical disease score, dose comparison” value ([2]; twice daily injection, total of 1.2 or 4 mg/kg/day vs 0.5 mg/kg/day, started day 11, FIG. 2) was “more effective in reducing clinical disease score than 0.5 mg/kg/day” and the “disease course (clinical scores)” value ([2]; twice daily sc 0.5 mg/kg A(1-7) from day 10, FIG. 1B) was “less severe disease course”. For the same substance, the “neurite outgrowth and proliferation” value ([3]; PEI-coated wells, counted four days after plating, increasing doses of A(1-7), FIG. 4) was “promotes neurite outgrowth and proliferation with increasing doses of A(1-7)” and the “number of cells able to undergo differentiation (proliferation)” value ([3]; suspension culture in the presence of A(1-7) for 4-7 days prior to placement on an adherent substrate) was “an increase in the number of cells able to undergo differentiation (proliferation)”.
